From article PMC4159853 (2014)

What was measured:
[1] = test system: R12.23 (DNA, aptamer) TGTACCGTCTGAGCGATTCGTACGAACGGCTTTGTACTGTTTGCACTGGCGGATTTAGCCAGTCAGTGTTAAGGAGTGC; experiment: fluorescence saturation bead-based binding assay; conditions: 100 mM NaCl, 2 mM MgCl2; immobilised compound; 20 mM Tris-HCl, 10% methanol; reported by authors as Kd for atrazine
[2] = test system: R12.57 (DNA, aptamer) TGTACCGTCTGAGCGATTCGTACGGATTGGGTTTGCACTTTACCTGCGGTGCATCGCAGCCAGTCAGTGTTAAGGAGTGC; experiment: fluorescence saturation bead-based binding assay; conditions: 100 mM NaCl, 2 mM MgCl2; immobilised compound; 20 mM Tris-HCl, 10% methanol; reported as Kd for atrazine; some non-specific bead binding
[3] = test system: R12.28 (DNA, aptamer) TGTACCGTCTGAGCGATTCGTACCATTAGTGGGTGCTCCTTACCTGATGGTCATCTAGCCAGTCAGTGTTAAGGAGTGC; experiment: fluorescence saturation bead-based binding assay; conditions: 100 mM NaCl, 2 mM MgCl2; immobilised compound; 20 mM Tris-HCl, 10% methanol; reported as Kd for atrazine; some non-specific bead binding
[4] = test system: R12.23 (DNA, aptamer) TGTACCGTCTGAGCGATTCGTACGAACGGCTTTGTACTGTTTGCACTGGCGGATTTAGCCAGTCAGTGTTAAGGAGTGC; experiment: competitive elution of fluorescent ssDNA from target beads; conditions: 100 mM NaCl, 2 mM MgCl2; 20 mM Tris-HCl, 10% methanol; 100 µM eluent, 5 nM ssDNA; buffer alone 0.15; from immobilised desethyl atrazine
[5] = test system: 34-base truncation of R12.23 (DNA, aptamer) TACTGTTTGCACTGGCGGATTTAGCCAGTCAGTG; experiment: bead capture from processed river water, capillary electrophoresis quantification; conditions: 100 mM NaCl, 2 mM MgCl2; 20 mM Tris-HCl; extract of river water spiked with 40 nM; 37% (1.5 nmol) recovered

Compound | Normalized Average Fluorescence [4] | other results
CC(C)Nc1nc(Cl)nc(NC(=O)CCCCCNC(=O)CCCC[C@@H]2SC[C@@H]3NC(=O)N[C@@H]32)n1 | – | Kd [1]: 0.62 ± 0.21 nM; Kd [2]: 20.78 ± 4.74 nM; Kd [3]: 5.10 ± 1.32 nM
CCC(=O)Nc1ccc(Cl)c(Cl)c1 | 0.65 ± 0.13 | –
Nc1nc(N)nc(Cl)n1 | 0.47 ± 0.10 | –
O=C(O)COc1ccc(Cl)cc1Cl | 0.64 ± 0.11 | –

Now from value to molecule, other results behind:

Normalized Average Fluorescence [4] | Compound | other results
−0.054 ± 0.44 | CC(C)Nc1nc(N)nc(Cl)n1 | –
1 ± 0.11 | CCNc1nc(Cl)nc(NC(C)C)n1 | binding [5]: yes
0.47 ± 0.14 | CCNc1nc(Cl)nc(NCC)n1 | –
